The values that follow are results of earlier work, collected in patent US12667547B2 (MESHABERASE, LLC, priority 2013, dated 2026).

Each structure is given as a SMILES string.

For the data set the following is noted: in vivo, po; cited from earlier work.

As to `CNC(=O)[C@H](Cc1ccccc1)NC(=O)[C@H](CC(C)C)[C@H](CSc1cccs1)C(=O)NO` [Batimastat], the oral bioavailability entry was “poor oral bioavailability”.
